Assay results from US9078712B2, “Preformed drug-eluting device to be affixed to an anterior spinal plate” (Warsaw Orthopedic, Inc., priority 2009, dated 2015).

Assay: Effect of autoclave sterilization on final drug concentration in silicone (FIG. 11)
Format: physicochemical
Conditions: starting concentration about 0.0738 wt %, autoclave about 30 minutes
Procedure: FIG. 11 illustrates the effect of sterilization on the final drug concentration, showing the degradation rate versus autoclave time, for example, with a starting concentration of about 0.0738 wt % rifampin in the silicone and running the autoclave about 30 minutes will result in a final concentration of about 0.054 wt % rifampin in the silicone sleeve.
The term “weight percent” or “wt %” means the ratio of the drug weight to the weight of the biocompatible matrix, e.g., the silicone after sterilization, for example, an initial concentration of rifampin of about 0.0738 wt % with about a 30 minute autoclave time will result in a final wt % of about 0.054 in the sterilized product.

final concentration of rifampin in the silicone after autoclave sterilization: about 0.054 wt %
Structure (SMILES): CO[C@H]1/C=C/O[C@@]2(C)Oc3c(C)c(O)c4c(O)c(c(/C=N/N5CCN(C)CC5)c(O)c4c3C2=O)NC(=O)/C(C)=C\C=C\[C@H](C)[C@H](O)[C@@H](C)[C@@H](O)[C@@H](C)[C@H](OC(C)=O)[C@@H]1C [rifampin]
